Measured values taken from US20240368150A1 (Hoffmann-La Roche Inc., priority 2021, published 2024).
pEC50: −log10 of the molar value. Where two headings read alike, the source gives them in different places.

Columns and labels:
[1] = test system: primary human T-cells; assay: Proliferation assay after 5 days (CellTiter-Glo, CD3 stimulation; PBS counter screen); format: cell-based; conditions: Homo sapiens, T-cell, 120 h, CD3 stimulation; for Emax: 5 days, normalized to reference compound A1 as stimulator control = 100%, DMSO neutral control, read-out: Emax proliferation (% activation); for pEC50: primary human T-cells, CellTiter-Glo after 5 days, EC50 of fitted sigmoidal curve, read-out: Tcell Proliferation CD3 EC50
Summary of the method: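 Compounds were added to medium-only plates, and proliferation was read 5 days later as luminescence from CellTiter-Glo 2.0, whose ATP signal is proportional to cell number. Plates and reagent were equilibrated to room temperature for 45 min before an equal volume of reagent was added, with 15 min rocking.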

[2] = test system: primary human T-cells

SMILES	pEC50 [2]	Emax [1] [%]	pEC50 [1]
CC(C)(CNC1CCOC1)c1nnc(-c2cc3c(cc2F)S(=O)(=O)C[C@H](N)C(=O)N3Cc2ccc(Cl)cc2)o1 (stereo partly drawn) [Example 157, (3R)-3-amino-5-[(4-chlorophenyl)methyl]-7-[5-[1,1-dimethyl-2-(tetrahydrofuran-3-ylamino)ethyl]-1,3,4-oxadiazol-2-yl]-8-fluoro-1,1-dioxo-2,3-dihydro-1λ^6,5-benzothiazepin-4-one]	5.68	106	6.00
CN1CCC(F)(F)C(c2nnc(-c3cc4c(cc3F)S(=O)(=O)C[C@H](N)C(=O)N4Cc3ccc(Cl)cc3)o2)C1 (stereo partly drawn) [Example 158, (3R)-3-amino-5-[(4-chlorophenyl)methyl]-7-[5-(4,4-difluoro-1-methyl-3-piperidyl)-1,3,4-oxadiazol-2-yl]-8-fluoro-1,1-dioxo-2,3-dihydro-1λ^6,5-benzothiazepin-4-one]	6.71	141	5.62
N[C@H]1CS(=O)(=O)c2cc(F)c(-c3nnc(C4CN(C5CC5)CC(F)(F)C4)o3)cc2N(Cc2ccc(Cl)cc2)C1=O (stereo partly drawn) [Example 159, (3R)-3-amino-5-[(4-chlorophenyl)methyl]-7-[5-(1-cyclopropyl-5,5-difluoro-3-piperidyl)-1,3,4-oxadiazol-2-yl]-8-fluoro-1,1-dioxo-2,3-dihydro-1λ^6,5-benzothiazepin-4-one]	6.66	121	6.74
N[C@H]1CS(=O)(=O)c2cc(F)c(-c3nnc(C4CNCC(F)(F)C4)o3)cc2N(Cc2ccc(Cl)cc2)C1=O (stereo partly drawn) [Example 160, (3R)-3-amino-5-[(4-chlorophenyl)methyl]-7-[5-(5,5-difluoro-3-piperidyl)-1,3,4-oxadiazol-2-yl]-8-fluoro-1,1-dioxo-2,3-dihydro-1λ^6,5-benzothiazepin-4-one]	6.30	96	6.42
CC1(c2nnc(-c3cc4c(cc3F)S(=O)(=O)C[C@H](N)C(=O)N4Cc3ccc(Cl)cc3)o2)CCNCC1 [Example 161, (3R)-3-amino-5-[(4-chlorophenyl)methyl]-8-fluoro-7-[5-(4-methyl-4-piperidyl)-1,3,4-oxadiazol-2-yl]-1,1-dioxo-2,3-dihydro-1λ^6,5-benzothiazepin-4-one]	5.94	73	5.26
CC(=O)N1CC(c2nnc(-c3cc4c(cc3F)S(=O)(=O)C[C@H](N)C(=O)N4Cc3ccc(Cl)cc3)o2)CC(F)(F)C1 (stereo partly drawn) [Example 162, (3R)-7-[5-(1-acetyl-5,5-difluoro-3-piperidyl)-1,3,4-oxadiazol-2-yl]-3-amino-5-[(4-chlorophenyl)methyl]-8-fluoro-1,1-dioxo-2,3-dihydro-1λ^6,5-benzothiazepin-4-one]	6.42	84	6.20
COC(=O)N1CC(c2nnc(-c3cc4c(cc3F)S(=O)(=O)C[C@H](N)C(=O)N4Cc3ccc(Cl)cc3)o2)CC(F)(F)C1 (stereo partly drawn) [Example 163, methyl 3,3-difluoro-5-[5-[(3R)-3-amino-5-[(4-chlorophenyl)methyl]-8-fluoro-1,1,4-trioxo-2,3-dihydro-1λ^6,5-benzothiazepin-7-yl]-1,3,4-oxadiazol-2-yl]piperidine-1-carboxylate]	7.00	118	7.29
CC(=O)N1CC2CC(c3nnc(-c4cc5c(cc4F)S(=O)(=O)C[C@H](N)C(=O)N5Cc4ccc(Cl)cc4)o3)(C2)C1 [Example 173, (3R)-7-[5-(3-acetyl-3-azabicyclo[3.1.1]heptan-1-yl)-1,3,4-oxadiazol-2-yl]-3-amino-5-1[(4-chlorophenyl)methyl]-8-fluoro-1,1-dioxo-2,3-dihydro-1λ^6,5-benzothiazepin-4-one]	5.66	89	6.23
CS(=O)(=O)N1CC2CC(c3nnc(-c4cc5c(cc4F)S(=O)(=O)C[C@H](N)C(=O)N5Cc4ccc(Cl)cc4)o3)(C2)C1 [Example 174, (3R)-3-amino-5-[(4-chlorophenyl)methyl]-8-fluoro-7-[5-(3-methylsulfonyl-3-azabicyclo[3.1.1]heptan-1-yl)-1,3,4-oxadiazol-2-yl]-1,1-dioxo-2,3-dihydro-1λ^6,5-benzothiazepin-4-one]	5.66	93	5.35

Continued, in another order:

pEC50 [2]	SMILES	Emax [1] [%]	pEC50 [1]
6.15	CS(=O)(=O)N1CC(c2nnc(-c3cc4c(cc3F)S(=O)(=O)C[C@H](N)C(=O)N4Cc3ccc(Cl)cc3)o2)CC(F)(F)C1 (stereo partly drawn) [Example 164, (3R)-3-amino-5-[(4-chlorophenyl)methyl]-7-[5-(5,5-difluoro-1-methylsulfonyl-3-piperidyl)-1,3,4-oxadiazol-2-yl]-8-fluoro-1,1-dioxo-2,3-dihydro-1λ^6,5-benzothiazepin-4-one]	82	6.54
6.34	COC(=O)N1CCCC(c2nnc(-c3cc4c(cc3F)S(=O)(=O)C[C@H](N)C(=O)N4Cc3ccc(Cl)cc3)o2)C1 (stereo partly drawn) [Example 165, methyl 3-[5-[(3R)-3-amino-5-[(4-chlorophenyl)methyl]-8-fluoro-1,1,4-trioxo-2,3-dihydro-1λ^6,5-benzothiazepin-7-yl]-1,3,4-oxadiazol-2-yl]piperidine-1-carboxylate]	85	6.51
6.25	COC(=O)N1CCC(c2nnc(-c3cc4c(cc3F)S(=O)(=O)C[C@H](N)C(=O)N4Cc3ccc(Cl)cc3)o2)C1 (stereo partly drawn) [Example 166, methyl 3-[5-[(3R)-3-amino-5-[(4-chlorophenyl)methyl]-8-fluoro-1,1,4-trioxo-2,3-dihydro-1λ^6,5-benzothiazepin-7-yl]-1,3,4-oxadiazol-2-yl]pyrrolidine-1-carboxylate]	104	6.04
6.91	COC(=O)N1CCC(c2nnc(-c3cc4c(cc3F)S(=O)(=O)C[C@H](N)C(=O)N4Cc3ccc(Cl)cc3)o2)CC1 [Example 167, methyl 4-[5-[(3R)-3-amino-5-[(4-chlorophenyl)methyl]-8-fluoro-1,1,4-trioxo-2,3-dihydro-1λ^6,5-benzothiazepin-7-yl]-1,3,4-oxadiazol-2-yl]piperidine-1-carboxylate]	100	6.68
5.80	CC(=O)N1CCC(c2nnc(-c3cc4c(cc3F)S(=O)(=O)C[C@H](N)C(=O)N4Cc3ccc(Cl)cc3)o2)CC1 [Example 168, (3R)-7-[5-(1-acetyl-4-piperidyl)-1,3,4-oxadiazol-2-yl]-3-amino-5-[(4-chlorophenyl)methyl]-8-fluoro-1,1-dioxo-2,3-dihydro-1λ^6,5-benzothiazepin-4-one]	63	5.31
5.48	CC(=O)N1CCC(C)(c2nnc(-c3cc4c(cc3F)S(=O)(=O)C[C@H](N)C(=O)N4Cc3ccc(Cl)cc3)o2)CC1 [Example 169, (3R)-7-[5-(1-acetyl-4-methyl-4-piperidyl)-1,3,4-oxadiazol-2-yl]-3-amino-5-[(4-chlorophenyl)methyl]-8-fluoro-1,1-dioxo-2,3-dihydro-1λ^6,5-benzothiazepin-4-one]	95	5.61
6.39	CC1(c2nnc(-c3cc4c(cc3F)S(=O)(=O)C[C@H](N)C(=O)N4Cc3ccc(Cl)cc3)o2)CCN(S(C)(=O)=O)CC1 [Example 170, (3R)-3-amino-5-[(4-chlorophenyl)methyl]-8-fluoro-7-[5-(4-methyl-1-methylsulfonyl-4-piperidyl)-1,3,4-oxadiazol-2-yl]-1,1-dioxo-2,3-dihydro-1λ^6,5-benzothiazepin-4-one]	97	5.82
5.78	COC(=O)N1CC(c2nnc(-c3cc4c(cc3F)S(=O)(=O)C[C@H](N)C(=O)N4Cc3ccc(Cl)cc3)o2)C1 [Example 172, methyl 3-[5-[(3R)-3-amino-5-[(4-chlorophenyl)methyl]-8-fluoro-1,1,4-trioxo-2,3-dihydro-1λ^6,5-benzothiazepin-7-yl]-1,3,4-oxadiazol-2-yl]azetidine-1-carboxylate]	190	5.53
< 5.00	CC(=O)N1CC(c2nnc(-c3cc4c(cc3F)S(=O)(=O)C[C@H](N)C(=O)N4Cc3ccc(Cl)cc3)o2)C2(CC2)C1 (stereo partly drawn) [Example 175, (3R)-7-[5-(5-acetyl-5-azaspiro[2.4]heptan-7-yl)-1,3,4-oxadiazol-2-yl]-3-amino-5-[(4-chlorophenyl)methyl]-8-fluoro-1,1-dioxo-2,3-dihydro-1λ^6,5-benzothiazepin-4-one]	62	5.15
5.60	CS(=O)(=O)N1CC(c2nnc(-c3cc4c(cc3F)S(=O)(=O)C[C@H](N)C(=O)N4Cc3ccc(Cl)cc3)o2)C2(CC2)C1 (stereo partly drawn) [Example 176, (3R)-3-amino-5-[(4-chlorophenyl)methyl]-8-fluoro-7-[5-(5-methylsulfonyl-5-azaspiro[2.4]heptan-7-yl)-1,3,4-oxadiazol-2-yl]-1,1-dioxo-2,3-dihydro-1λ^6,5-benzothiazepin-4-one]	70	5.37
5.84	COC(=O)N1CC(c2nnc(-c3cc4c(cc3F)S(=O)(=O)C[C@H](N)C(=O)N4Cc3ccc(Cl)cc3)o2)C2(CC2)C1 (stereo partly drawn) [Example 177, methyl 7-[5-[(3R)-3-amino-5-[(4-chlorophenyl)methyl]-8-fluoro-1,1,4-trioxo-2,3-dihydro-1λ^6,5-benzothiazepin-7-yl]-1,3,4-oxadiazol-2-yl]-5-azaspiro[2.4]heptane-5-carboxylate]	68	6.10
6.48	COC(=O)N1CCC2CC2(c2nnc(-c3cc4c(cc3F)S(=O)(=O)C[C@H](N)C(=O)N4Cc3ccc(Cl)cc3)o2)C1 (stereo partly drawn) [Example 178, methyl 1-[5-[(3R)-3-amino-5-[(4-chlorophenyl)methyl]-8-fluoro-1,1,4-trioxo-2,3-dihydro-1λ^6,5-benzothiazepin-7-yl]-1,3,4-oxadiazol-2-yl]-3-azabicyclo[4.1.0]heptane-3-carboxylate]	105	6.69
